# In paper PMC7165133, “Functional expression and characterization of cinnamic acid 4-hydroxylase from the hornwort Anthoceros agrestis in Physcomitrella patens” (Plant Cell Reports, 2020):
# B1: Pp_AaC4H (AaC4H, CYP73A260) (Anthoceros agrestis) (protein)
# chain: MASGETTLGSTNTMFLDALSILEALLATIAVLWLVKQVTSSRLKPPPGPLALPILGNWLQVGDDLNHRNLSDLAKKYGDIFLLRMGQRNVVVVSSPELAKEVLLTQGVEFGSRTRNVVFDIFTGKGQDMVFTVYGEHWRRMRRIMTVPFFTSKVVQQSRVAWEDETDRVIADLKTNPKYAAASTTGVVLRQRLQLLMYNTMYRLMFDRRFESEDDPLFVQLKALNGERSRLAQSFEYNYGDFIPVLRPLLRNYLKICQDIKDRRLALFKNHFLDERKKLLDTKRSQTAASTGKCAIDHILDAQKNGKINEDNVLYIVENINVAAIETTLWSMEWGLAELVNNPDIQQKVREELDHVLGKGTPLTEPDIQAGKLSYLAAVVKETLRLHMAIPLLVPHMNLHQARLGGYDIPAESKVLVNAWYLANNPALWKDPETFRPERFLEGDKGAEPNGTDFRFLPFGVGRRSCPGIILALPLLNLVLGRLVQSFLLTCPPGVEKLDLSEKGGQFSLHIAAHSNIVVKPRPDM
# Assays:
# [1] = tested on: T1, Physcomitrella patens NADPH:cytochrome P450 reductase(s) (CPR or POR), in Pp_AaC4H; assay: HPLC of 4-coumaric acid formed (coupled C4H reaction), Michaelis-Menten fit; format: biochemical, Physcomitrium patens; details: 400 µM cinnamic acid, pH 7.0, 25 °C, 5 min; crude extract; NADPH oxidised by CPR, read-out via C4H; read-out: apparent Km
# T1 construct: native reductase(s) of the host moss, four putative CPR genes; crude protein extract of moss expressing C-terminally 6xHis-tagged AaC4H; with trans-cinnamate 4-monooxygenase (Anthoceros agrestis)
# [2] = tested on: T2, Physcomitrella patens NADPH:cytochrome P450 reductase(s) (CPR or POR), in Pp_WT; assay: as above; format: biochemical, Physcomitrium patens; details: 400 µM cinnamic acid, pH 7.0, 25 °C, 5 min; crude extract of untransformed moss; NADPH oxidised by CPR, read-out via C4H; read-out: apparent Km
# T2 construct: native reductase(s), four putative CPR genes; crude protein extract of untransformed moss with its own C4Hs; with trans-cinnamate 4-monooxygenase; trans-cinnamate 4-monooxygenase
# [3] = tested on: T3, Pp_WT (PpC4Hs); assay: HPLC of 4-coumaric acid formed, Michaelis-Menten fit; format: biochemical, Physcomitrium patens; details: 5 mM NADPH, pH 7.0, 25 °C, 5 min; crude extract of untransformed moss; read-out: apparent Km
# T3 construct: gene PpC4H_1; native, crude protein extract of untransformed moss; six putative C4H genes, only two named in the main text; with NADPH--cytochrome P450 reductase
# [4] = substrate: O=C(O)/C=C/c1ccccc1; assay: cells, lysate or membranes; details: 5 mM NADPH, pH 7.0, 25 °C, 5 min, crude extract with endogenous PpC4H background
molecule,measurement,setting,value
NC(=O)C1=CN([C@@H]2O[C@H](COP(=O)(O)OP(=O)(O)OC[C@H]3O[C@@H](n4cnc5c(N)ncnc54)[C@H](OP(=O)(O)O)[C@@H]3O)[C@@H](O)[C@H]2O)C=CC1 [NADPH],Km,[1],88 ± 19.5 µM
same,Km,[2],92.3 ± 10.8 µM
O=C(O)/C=C/c1ccccc1 [t-cinnamic acid],Km,[3],25.1 ± 8.9 µM
B1,Km,[4],17.3 ± 5.0 µM
